Laboratory results: ChEMBL document CHEMBL1909046, “DrugMatrix in vitro pharmacology data”

What was measured:
[1] = biological target: T1, Alpha-1A adrenergic receptor (Rattus norvegicus, UniProt P43140); test: DRUGMATRIX: Alpha-1A adrenergic receptor radioligand binding (ligand: prazosin); assay type: cell membranes, Wistar, Submaxillary gland, Membrane; conditions: Not Active = under 50% inhibition at 10 µM
T1 sequence (P43140 whole entry): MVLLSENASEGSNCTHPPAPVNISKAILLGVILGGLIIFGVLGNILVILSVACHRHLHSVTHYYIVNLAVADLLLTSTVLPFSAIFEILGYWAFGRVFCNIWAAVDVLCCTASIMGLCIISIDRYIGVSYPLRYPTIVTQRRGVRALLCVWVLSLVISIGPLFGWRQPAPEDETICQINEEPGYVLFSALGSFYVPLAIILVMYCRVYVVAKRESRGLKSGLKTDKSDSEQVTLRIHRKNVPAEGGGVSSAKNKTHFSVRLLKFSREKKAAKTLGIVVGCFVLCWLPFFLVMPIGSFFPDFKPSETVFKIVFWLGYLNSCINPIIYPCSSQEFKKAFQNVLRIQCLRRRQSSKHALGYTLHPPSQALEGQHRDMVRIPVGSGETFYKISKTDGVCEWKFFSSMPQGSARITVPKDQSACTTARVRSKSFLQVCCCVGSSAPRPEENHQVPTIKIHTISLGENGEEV

[2] = biological target: T2, Alpha-2C adrenergic receptor (Homo sapiens, UniProt P18825); test: DRUGMATRIX: Adrenergic Alpha-2C radioligand binding (ligand: [3H] MK-912); assay type: cell membranes, Sf9, Membrane
T2 sequence (P18825 whole entry): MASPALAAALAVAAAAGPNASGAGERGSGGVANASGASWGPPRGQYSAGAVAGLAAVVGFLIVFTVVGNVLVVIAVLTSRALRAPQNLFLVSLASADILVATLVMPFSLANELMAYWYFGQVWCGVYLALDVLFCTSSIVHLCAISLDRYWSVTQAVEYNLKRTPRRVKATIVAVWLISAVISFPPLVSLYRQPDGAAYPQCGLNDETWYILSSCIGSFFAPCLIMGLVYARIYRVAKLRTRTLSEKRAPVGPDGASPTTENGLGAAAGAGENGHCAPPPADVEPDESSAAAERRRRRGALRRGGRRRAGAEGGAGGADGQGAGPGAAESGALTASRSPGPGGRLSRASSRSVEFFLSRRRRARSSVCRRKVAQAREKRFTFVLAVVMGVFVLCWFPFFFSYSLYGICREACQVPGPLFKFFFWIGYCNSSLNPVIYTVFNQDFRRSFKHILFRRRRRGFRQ

[3] = DRUGMATRIX: Tumor Necrosis Factor (TNF), Non-Selective radioligand binding (ligand: [125I] TNF-alpha); assay type: cell membranes, Membrane; conditions: u-937; Not Active = under 50% inhibition at 10 µM
Vasopressin V1a receptor = Vasopressin V1a receptor (Homo sapiens, UniProt P37288); assay type: cell membranes, Membrane; conditions: hek293; note: in other assays of this panel Not Active means under 50% inhibition at 10 µM
[4] = DRUGMATRIX: Leukotriene, BLT (LTB4) radioligand binding (ligand: [3H]LTB4); assay type: cell membranes, Membrane; conditions: u-937; Not Active = under 50% inhibition at 10 µM
[5] = biological target: T3, Amine oxidase [flavin-containing] A (Homo sapiens, UniProt P21397); test: DRUGMATRIX: Monoamine Oxidase MAO-A enzyme inhibition (substrate: Kynuramine); parameters: species or system BTI-TN-5B1-4; conditions: bti-tn-5b1-4; Not Active = under 50% inhibition at 10 µM
T3 sequence (P21397 whole entry): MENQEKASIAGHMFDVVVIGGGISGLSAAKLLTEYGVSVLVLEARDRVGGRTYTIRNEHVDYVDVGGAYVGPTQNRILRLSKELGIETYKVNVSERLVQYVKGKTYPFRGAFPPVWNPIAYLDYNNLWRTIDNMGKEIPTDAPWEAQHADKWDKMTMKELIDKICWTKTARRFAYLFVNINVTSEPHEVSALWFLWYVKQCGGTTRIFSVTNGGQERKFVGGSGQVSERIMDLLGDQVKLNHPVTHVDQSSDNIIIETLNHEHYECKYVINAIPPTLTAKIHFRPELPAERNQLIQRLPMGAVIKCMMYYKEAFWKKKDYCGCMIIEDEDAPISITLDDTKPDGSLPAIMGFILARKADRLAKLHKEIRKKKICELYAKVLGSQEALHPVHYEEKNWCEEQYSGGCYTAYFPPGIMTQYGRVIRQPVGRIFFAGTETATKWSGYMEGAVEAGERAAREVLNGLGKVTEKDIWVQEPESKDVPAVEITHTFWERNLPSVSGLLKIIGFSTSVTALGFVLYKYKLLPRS

Adenosine receptor A3 = biological target: T4, Adenosine receptor A3 (Homo sapiens, UniProt P0DMS8); assay type: cell membranes, CHO-K1, Membrane;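 note: radioligand binding assay with AB-MECA serving as the labeled ligand; in other assays of this panel Not Active means under 50% inhibition at 10 µM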
T4 sequence (P0DMS8 whole entry): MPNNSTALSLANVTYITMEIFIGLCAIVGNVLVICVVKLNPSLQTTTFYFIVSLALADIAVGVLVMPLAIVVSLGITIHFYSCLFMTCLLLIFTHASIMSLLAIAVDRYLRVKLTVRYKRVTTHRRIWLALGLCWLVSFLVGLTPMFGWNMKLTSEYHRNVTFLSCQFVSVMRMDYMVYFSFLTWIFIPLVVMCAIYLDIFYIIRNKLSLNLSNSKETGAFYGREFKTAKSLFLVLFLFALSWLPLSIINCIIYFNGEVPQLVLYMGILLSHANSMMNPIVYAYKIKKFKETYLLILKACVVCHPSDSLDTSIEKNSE

Vasopressin V1a receptor, sequence (P37288 whole entry): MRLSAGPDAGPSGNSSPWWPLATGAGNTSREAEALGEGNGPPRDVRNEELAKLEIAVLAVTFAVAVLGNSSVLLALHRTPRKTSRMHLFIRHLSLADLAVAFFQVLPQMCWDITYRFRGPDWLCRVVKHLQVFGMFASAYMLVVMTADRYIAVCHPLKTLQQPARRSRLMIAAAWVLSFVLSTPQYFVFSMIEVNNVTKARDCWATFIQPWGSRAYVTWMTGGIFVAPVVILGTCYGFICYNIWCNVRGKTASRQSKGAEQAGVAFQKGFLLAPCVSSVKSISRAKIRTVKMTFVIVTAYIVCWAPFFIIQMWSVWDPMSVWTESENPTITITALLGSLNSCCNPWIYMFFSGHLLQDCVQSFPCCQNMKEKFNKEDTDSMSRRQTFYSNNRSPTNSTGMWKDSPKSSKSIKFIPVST

With `C[C@]12CC[C@@H]3c4ccc(O)cc4CC[C@H]3[C@@H]1CC[C@@H]2O` [ESTRADIOL] the IC50 [1] was “Not Active”, the IC50 ([2]; sf9) was “Not Active” and the IC50 [3] was “Not Active”. For the same compound, the Ki [3] was “Not Active”, the IC50 (Vasopressin V1a receptor) was “Not Active” and the IC50 [4] was “Not Active”. For the same compound, the Ki [4] was “Not Active”, the IC50 [5] was “Not Active” and the IC50 (Adenosine receptor A3; cho-k1) was “Not Active”.

With `CC[C@@H](CO)NCCN[C@@H](CC)CO` [ETHAMBUTOL] the IC50 [1] was “Not Active”, the IC50 ([2]; sf9) was “Not Active” and the IC50 [3] was “Not Active”. The Ki [3] was “Not Active”, the IC50 (Vasopressin V1a receptor) was “Not Active” and the IC50 [4] was “Not Active”. The Ki [4] was “Not Active”, the IC50 [5] was “Not Active” and the IC50 (Adenosine receptor A3; cho-k1) was “Not Active”.

In the case of `CC1(C)O[C@@H]2C[C@H]3[C@@H]4C[C@H](F)C5=CC(=O)C=C[C@]5(C)[C@H]4[C@@H](O)C[C@]3(C)[C@]2(C(=O)CO)O1` [FLUNISOLIDE], the IC50 [1] is reported as “Not Active”, the IC50 ([2]; sf9) is reported as “Not Active” and the IC50 [3] is reported as “Not Active”. For the same compound, the Ki [3] was “Not Active”, the IC50 (Vasopressin V1a receptor) was “Not Active” and the IC50 [4] was “Not Active”. For the same compound, the Ki [4] was “Not Active”, the IC50 [5] was “Not Active” and the IC50 (Adenosine receptor A3; cho-k1) was “Not Active”.

In the case of `CC1(C)O[C@@H]2C[C@H]3[C@@H]4C[C@H](F)C5=CC(=O)C=C[C@]5(C)[C@@]4(F)[C@@H](O)C[C@]3(C)[C@]2(C(=O)CO)O1` [FLUOCINOLONE ACETONIDE], the IC50 [1] is reported as “Not Active”, the IC50 ([2]; sf9) is reported as “Not Active” and the IC50 [3] is reported as “Not Active”. The Ki [3] was “Not Active”, the IC50 (Vasopressin V1a receptor) was “Not Active” and the IC50 [4] was “Not Active”. The Ki [4] was “Not Active”, the IC50 [5] was “Not Active” and the IC50 (Adenosine receptor A3; cho-k1) was “Not Active”.

With `CC1(C)O[C@@H]2C[C@H]3[C@@H]4C[C@H](F)C5=CC(=O)CC[C@]5(C)[C@H]4[C@@H](O)C[C@]3(C)[C@]2(C(=O)CO)O1` [FLURANDRENOLIDE] the IC50 [1] was “Not Active”, the IC50 ([2]; sf9) was “Not Active” and the IC50 [3] was “Not Active”. For the same compound, the Ki [3] was “Not Active”, the IC50 (Vasopressin V1a receptor) was “Not Active” and the IC50 [4] was “Not Active”. For the same compound, the Ki [4] was “Not Active”, the IC50 [5] was “Not Active” and the IC50 (Adenosine receptor A3; cho-k1) was “Not Active”.

In the case of `CN(C)c1ccc(C(=C2C=CC(=[N+](C)C)C=C2)c2ccc(N(C)C)cc2)cc1.[Cl-]` [GENTIAN VIOLET], the IC50 [1] is reported as “Not Active”, the IC50 ([2]; read-out: IC50) is reported as 1880 nM and the Ki ([2]; read-out: Ki) is reported as 274 nM. The IC50 [3] was “Not Active”, the Ki [3] was “Not Active” and the IC50 (Vasopressin V1a receptor) was “Not Active”. The IC50 [4] was “Not Active”, the Ki [4] was “Not Active” and the IC50 [5] was “Not Active”. It also gave an IC50 (Adenosine receptor A3; read-out: IC50) of 4170 nM and a Ki (Adenosine receptor A3; read-out: Ki) of 2350 nM.

With `Cc1ccc(S(=O)(=O)NC(=O)NN2CC3CCCC3C2)cc1` (configuration not stated) [GLICLAZIDE] the IC50 [1] was “Not Active”, the IC50 ([2]; sf9) was “Not Active” and the IC50 [3] was “Not Active”. The Ki [3] was “Not Active”, the IC50 (Vasopressin V1a receptor) was “Not Active” and the IC50 [4] was “Not Active”. For the same compound, the Ki [4] was “Not Active”, the IC50 [5] was “Not Active” and the IC50 (Adenosine receptor A3; cho-k1) was “Not Active”.

In the case of `NC(=O)NO` [HYDROXYUREA], the IC50 [1] is reported as “Not Active”, the IC50 ([2]; sf9) is reported as “Not Active” and the IC50 [3] is reported as “Not Active”. For the same compound, the Ki [3] was “Not Active”, the IC50 (Vasopressin V1a receptor) was “Not Active” and the IC50 [4] was “Not Active”. The Ki [4] was “Not Active”, the IC50 [5] was “Not Active” and the IC50 (Adenosine receptor A3; cho-k1) was “Not Active”.

In the case of `CC(C)Cc1ccc(C(C)C(=O)O)cc1` (configuration not stated) [IBUPROFEN], the IC50 [1] is reported as “Not Active”, the IC50 ([2]; sf9) is reported as “Not Active” and the IC50 [3] is reported as “Not Active”. The Ki [3] was “Not Active”, the IC50 (Vasopressin V1a receptor) was “Not Active” and the IC50 [4] was “Not Active”. The Ki [4] was “Not Active”, the IC50 [5] was “Not Active” and the IC50 (Adenosine receptor A3; cho-k1) was “Not Active”.

For `COc1ccc2c(c1)c(CC(=O)O)c(C)n2C(=O)c1ccc(Cl)cc1` [INDOMETHACIN], the IC50 [1] was “Not Active”, the IC50 ([2]; sf9) was “Not Active” and the IC50 [3] was “Not Active”. The Ki [3] was “Not Active”, the IC50 (Vasopressin V1a receptor) was “Not Active” and the IC50 [4] was “Not Active”. For the same compound, the Ki [4] was “Not Active”, the IC50 [5] was “Not Active” and the IC50 (Adenosine receptor A3; cho-k1) was “Not Active”.
